# Source: patent publication US20080221205A1, “FURAN DERIVATIVES FOR PREVENTING AND CURING OSTEOPOROSIS AND PHARMACEUTICAL COMPOSITIONS CONTAINING THE SAME” (priority 2002, published 2008)
# Entries after “also recorded” stand apart in the source; their conditions may differ.
# Columns and labels:
# [1] = tested on: osteoclasts; test: Resorption activity of osteoclasts on calcium phosphate-coated plates (resorption pit area); assay type: cell-based, mice; details: concentration not given
# Method: In order to investigate the effects of the Compound 1 on differentiation and activity of osteoclasts, when differentiation of osteoclast progenitors was induced, the activity of Tartrate-resistant acid phosphatase (TRAP) as an osteoclastic marker enzyme was investigated, and, when differentiated osteoclasts were cultured on calcium phosphate-coated plates (OAAS, OCT Inc.), resorption activity (formation of resorption pits) were measured.
# First, bone marrow cells were isolated, as follow. After sacrificing 7-9 week female mice by cervical dislocation, femur and tibia were excised aseptically while removing attached soft tissues. After cutting both ends of long bones, 1 ml of an enzyme solution, containing 0.1% collagenase (Gibco), 0.05% trypsin and 0.5 mM EDTA (Gibco), was injected to the bone marrow cavity at one end using a syringe with a 26-guage needle, and bone marrow was then collected. After shaking the recovered bone marrow for 30 min, bone marrow cells were collected, and cultured in α-minimum essential medium (α-MEM) supplemented with 10% FBS for 24 hrs. […]
# The differentiated osteoclasts were cultured on calcium phosphate-coated plates (OAASTM, OCT, Korea) in order to evaluate resorption activity of the cells. […] After washing again with distilled water and drying the plates, the area of formed resorption pits was calculated by means of an Image Pro Plus software. […]
# [2] = tested on: ovariectomized white mice; test: Preventive effect 1 on osteoporosis: tibia histology, oral administration after ovariectomy; assay type: in vivo; details: 10 mg/day, four weeks from ovariectomy, versus untreated control
# Method: In order to evaluate effects of the compound of the present invention on treatment and prevention of osteoporosis, female white mice with osteoporosis induced by ovariectomy were used as a disease model. After ovariectomy, mice were administered with the compound of the present invention. Tibias were dissected from the mice, and observed histologically.
# After anesthetizing female white mice with 100 mg/kg of Ketamine (Ketara) and 0.15 ml/kg of 2% Xylazine (Rompun), the lumbar dorsum is shaved bilaterally and the exposed skin was prepared for aseptic surgery by a 10% povidone-iodine scrub followed by a 70% alcohol wipe.
# A 1-cm incision was made in the central region of the abdomen, and the ovary was identified along with the uterus with caution not to damage the main organs such as the liver and diaphragm. After ligating the uterus with a thread for suturing, the exposed ovary was severed toward both sides and removed. Thereafter, each organ was relocated to its original position, and the incision was closed with a thread for suturing in an interrupted pattern. […]
# The daily dosage of the Compound 1 per female white mouse was determined based on 250 g body weight. […] With caution not to exchange the water bottles between the groups, everyday, the number of mice was recorded, and the mixture was prepared based on the number of mice. […]
smiles,measurement,setting,value
"O=Cc1ccc(CO)o1 [Compound 1, 5-hydroxymethylfuran-2-carboxyaldehyde]",Area of resorption pits compared to control,[1],about 50%
same,Area of resorption pits compared to control,[1]; listed as compound prepared in Example 1,inhibit bone resorption activity of osteoclasts
same,"Trabecular and cortical bone of tibia, light microscopy",[2],trabecular bone loss was not observed; also recorded: marked increase in the cortical and trabecualr bone; also recorded: no trabecular bone loss
